Test results published in patent US6107316A, “Method for treating protozoal infections” (priority 1998, dated 2000).

Legend:
Toxoplasma gondii [1] = experiment: growth inhibition of T. gondii in L929 host cells ([3H]-uracil incorporation); type: cell-based; settings: Toxoplasma gondii, L929 host cells; for inhibition at 0.05 µg/mL: 0.05 μg/ml; for inhibition at 0.5 µg/mL: 0.5 μg/ml; for inhibition at 0.5 µg/mL / inhibition at 5 µg/mL / inhibition at 25 µg/mL: read-out: % Inhibition; for inhibition at 5 µg/mL: 5.0 μg/ml; for inhibition at 25 µg/mL: 25.0 μg/ml
Description: (§1) Compounds were tested for it vitro growth inhibitory activity against Toxoplasma gondii replication in L929 (L929-ATCC CCL 1, mouse connective tissue) or HFF (human foreskin fibroblast) host cells using the [^3 H]-uracil incorporation technique as follows. Host cells were grown in 96-well flat-bottom microtiter plates at 37° C in a 5% carbon dioxide environment in modified Eagle's medium containing penicillin, streptomycin and 10% fetal equine serum. Wells containing a homogeneous confluent monolayer of host cells were infected with T. gondii tachyzoites at a ratio of 3 parasites per cell (approximately 6×10^4 tachyzoites per well containing 100 μl of medium). […] Two hours post infection, the cultures were washed to remove free parasites and the various dilutions of test compound were added. Cells were subsequently collected at 24, 48 and 72 hours. Four hours prior to each harvesting 50 Al of [^3 H]-uracil (1 μCi) was added. Cells were collected using a cell harvester and incorporated radioactivity was measured using a scintillation counter. […]

Toxoplasma gondii [2] = experiment: growth inhibition of T. gondii in HFF host cells ([3H]-uracil incorporation); type: cell-based; settings: Toxoplasma gondii; for inhibition at 0.5 µg/mL: 0.5 μg/ml; for inhibition at 0.05 µg/mL: 0.05 μg/ml; for inhibition at 25 µg/mL: 25.0 μg/ml
Description: as §1

[3] = cytotoxicity towards L929 host cells (Cell Titer 96); settings: mouse, % Inhibition of host cell growth (values in parenthesis)
Description: (§2) Cytotoxicity of the test compounds towards host cells was determined using the Cell Titer 96™ it (Promega Corporation, Madison, Wis.) as follows. Cells were seeded at a concentration of 5×10^3 cells per well containing 100 μl of medium in 96-well flat-bottom microtiter plates and incubated at 37° C. in a 5% carbon dioxide environment for 4 hours. Dilutions of the test compounds prepared as described above were then added, and incubation continued for 24, 48 or 72 hours. Four hours before each of these time points the growth medium containing test compound was replaced with 100 μl of fresh medium followed by addition of 16 μl of the kit dye solution. After incubation at 37° C. for another 4 hours, 100 μl of the kit solubilization/stop solution was added to each well, the contents of the wells were mixed and the plates kept 1 hour at room temperature. The plates were then read spectrophotometrically in a plate reader at a wavelength of 570 nm. […] Atovaquone was included in the test as a standard.

[4] = cytotoxicity towards HFF host cells (Cell Titer 96); settings: human, % Inhibition of host cell growth (values in parenthesis)
Description: as §2

Cryptosporidium parvum = experiment: growth inhibitory activity against C. parvum in host MDBKF5D2 cells (immunofluorescence); type: cell-based; settings: Cryptosporidium parvum, 48 h
Description: (§3) Compounds were tested for in vitro growth inhibitory activity against C. parvum grown in host MDBKF5D2 cells and for toxicity towards the host cells as follows. […] To test for toxicity towards the host cells, the media containing test compound (200 μl) were introduced into two wells of a 96 well microtiter plate containing confluent MDBKF5D2 cell monolayers and two wells without monolayers, and incubated at 37° C. in an 8% carbon dioxide environment. After 48 hours, the tetrazolium salt MTS (Owen's solution) and phenazine methosulfate were added to each well at concentrations of 333 μg/ml and 25 μM, respectively. The plate was returned to the incubator in the dark to develop for 2 hours, then 100 μl of each supernatant was transferred to a new microtiter plate and read spectrophotometrically in a plate reader at a wavelength of 490 nm. Percent toxicity was calculated by subtracting the mean optical density (OD) of the drug supernatants from the OD of medium control supernatants (no drug), dividing by the OD of the medium control, and multiplying by 100. To test for growth inhibitory activity against C. parvum, 3×10^4 oocysts per well were incubated in mentioned concentrations of each drug at 37° C. (8% CO2) on confluent MDBKF5D2 cell monolayers in 96 well microtiter plates. After 48 hours, the level of infection in each well was determined by means of an immunofluorescence assay. Percent inhibition of growth was calculated by subtracting the mean parasite count in the wells containing test compound from the mean parasite count in the medium control wells (no test compound), dividing by the mean parasite count in the medium control wells, and multiplying by 100. Paromomycin was included in the test as a standard.

[5] = toxicity towards MDBKF5D2 host cells (MTS); settings: bovine, mdbkf5d2 cells, Cytotoxicity (percent toxicity)
Description: as §3

[6] = 24 h, HFF host cells, 24 hours, read-out: % Inhibition
[7] = 24 h, HFF host cells, 5.0 μg/ml, 24 hours, read-out: % Inhibition
[8] = 48 h, HFF host cells, 48 hours, read-out: % Inhibition
[9] = 48 h, HFF host cells, 5.0 μg/ml, 48 hours, read-out: % Inhibition
[10] = 72 h, HFF host cells, 72 hours, read-out: % Inhibition
[11] = 72 h, HFF host cells, 5.0 μg/ml, 72 hours, read-out: % Inhibition

For `O=C1C(O)=C([C@H]2CC[C@H](c3ccc(Cl)cc3)CC2)C(=O)c2ccccc21` [Atovaquone, reference compound], the inhibition at 0.05 µg/mL (Toxoplasma gondii [1]; L929, 24 h, 24 hours) was 80.9%, the inhibition at 0.5 µg/mL (Toxoplasma gondii [1]; L929, 24 h, 24 hours) was 85.2% and the inhibition at 5 µg/mL (Toxoplasma gondii [1]; L929, 24 h, 24 hours) was 80.3%. The inhibition at 0.05 µg/mL (Toxoplasma gondii [1]; L929, 48 h, 48 hours) was 0%, the inhibition at 0.5 µg/mL (Toxoplasma gondii [1]; L929, 48 h, 48 hours) was 99% and the inhibition at 5 µg/mL (Toxoplasma gondii [1]; L929, 48 h, 48 hours) was 100%. It also gave an inhibition at 0.05 µg/mL (Toxoplasma gondii [1]; L929, 72 h, 72 hours) of 0%, an inhibition at 0.5 µg/mL (Toxoplasma gondii [1]; L929, 72 h, 72 hours) of 98.4% and an inhibition at 5 µg/mL (Toxoplasma gondii [1]; L929, 72 h, 72 hours) of 97.8%. It also gave an inhibition at 0.5 µg/mL (Toxoplasma gondii [2]; [6]) of 98.3%, an inhibition at 5 µg/mL (Toxoplasma gondii [2]; [7]) of 95.5% and an inhibition at 0.05 µg/mL (Toxoplasma gondii [2]; 48 h, HFF host cells) of 50.5%. It also gave an inhibition at 0.5 µg/mL (Toxoplasma gondii [2]; [8]) of 77.8%, an inhibition at 5 µg/mL (Toxoplasma gondii [2]; [9]) of 99.8% and an inhibition at 0.05 µg/mL (Toxoplasma gondii [2]; 72 h, HFF host cells) of 89.4%. The inhibition at 0.5 µg/mL (Toxoplasma gondii [2]; [10]) was 99.8%, the inhibition at 5 µg/mL (Toxoplasma gondii [2]; [11]) was 100% and the inhibition at 24 h ([3]; L929, 0.05 μg/ml) was 0%. The inhibition at 48 h ([3]; L929, 0.05 μg/ml) was 0%, the inhibition at 72 h ([3]; L929, 0.05 μg/ml) was 0.2% and the inhibition at 24 h ([3]; L929, 0.5 μg/ml) was 14.3%. For the same compound, the inhibition at 48 h ([3]; L929, 0.5 μg/ml) was 15%, the inhibition at 72 h ([3]; L929, 0.5 μg/ml) was 44.4% and the inhibition at 24 h ([3]; L929, 5.0 μg/ml) was 20%. It also gave an inhibition at 48 h ([3]; L929, 5.0 μg/ml) of 54.1%, an inhibition at 72 h ([3]; L929, 5.0 μg/ml) of 78.1% and an inhibition at 24 h ([4]; 0.05 μg/ml) of 0%. For the same compound, the inhibition at 48 h ([4]; 0.05 μg/ml) was 0%, the inhibition at 72 h ([4]; 0.05 μg/ml) was 0% and the inhibition at 24 h ([4]; 0.5 μg/ml) was 0%. It also gave an inhibition at 48 h ([4]; 0.5 μg/ml) of 9.6%, an inhibition at 72 h ([4]; 0.5 μg/ml) of 1.4% and an inhibition at 24 h ([4]; 5.0 μg/ml) of 6.2%. It also gave an inhibition at 48 h ([4]; 5.0 μg/ml) of 31.1% and an inhibition at 72 h ([4]; 5.0 μg/ml) of 28.1%.

`CCC(C)(NC(=O)c1cc(F)c(F)c(F)c1)C(=O)CCl` (stereo not shown) [Compound 11] gave an inhibition at 5 µg/mL (Toxoplasma gondii [1]; L929, 24 h, 24 hours) of 21.5%, an inhibition at 25 µg/mL (Toxoplasma gondii [1]; L929, 24 h, 24 hours) of 25.6% and an inhibition at 5 µg/mL (Toxoplasma gondii [1]; L929, 48 h, 48 hours) of 80.1%. For the same compound, the inhibition at 25 µg/mL (Toxoplasma gondii [1]; L929, 48 h, 48 hours) was 66.1%, the inhibition at 5 µg/mL (Toxoplasma gondii [1]; L929, 72 h, 72 hours) was 95.4% and the inhibition at 25 µg/mL (Toxoplasma gondii [1]; L929, 72 h, 72 hours) was 73.6%. It also gave an inhibition at 5 µg/mL (Toxoplasma gondii [2]; [7]) of 73.4%, an inhibition at 25 µg/mL (Toxoplasma gondii [2]; [6]) of 91.9% and an inhibition at 5 µg/mL (Toxoplasma gondii [2]; [9]) of 98.4%. For the same compound, the inhibition at 25 µg/mL (Toxoplasma gondii [2]; [8]) was 98.8%, the inhibition at 5 µg/mL (Toxoplasma gondii [2]; [11]) was 97.7% and the inhibition at 25 µg/mL (Toxoplasma gondii [2]; [10]) was 97.7%. It also gave an inhibition at 24 h ([3]; L929, 5.0 μg/ml) of 0%, an inhibition at 48 h ([3]; L929, 5.0 μg/ml) of 5.5% and an inhibition at 72 h ([3]; L929, 5.0 μg/ml) of 36.9%. It also gave an inhibition at 24 h ([3]; L929, 25.0 μg/ml) of 22.6%, an inhibition at 48 h ([3]; L929, 25.0 μg/ml) of 60.1% and an inhibition at 72 h ([3]; L929, 25.0 μg/ml) of 89.6%. For the same compound, the inhibition at 24 h ([4]; 5.0 μg/ml) was 2.1%, the inhibition at 48 h ([4]; 5.0 μg/ml) was 6.1% and the inhibition at 72 h ([4]; 5.0 μg/ml) was 0%. It also gave an inhibition at 24 h ([4]; 25.0 μg/ml) of 17.5%, an inhibition at 48 h ([4]; 25.0 μg/ml) of 20% and an inhibition at 72 h ([4]; 25.0 μg/ml) of 50.1%. The inhibition at 0.1 µM (Cryptosporidium parvum) was 5.6%, the inhibition at 1 µM (Cryptosporidium parvum) was 18.1% and the inhibition at 10 µM (Cryptosporidium parvum) was 23.9%. For the same compound, the inhibition at 100 µM (Cryptosporidium parvum) was 86.2%, the cytotoxicity at 48 h, 0.1 µM [5] was 0% and the cytotoxicity at 48 h, 1 µM [5] was 0%. The cytotoxicity at 48 h, 10 µM [5] was 0% and the cytotoxicity at 48 h, 100 µM [5] was 2.7%.

For `CCC(C)(NC(=O)c1cc(F)cc(F)c1)C(=O)CCl` (stereo not shown) [Compound 12], the inhibition at 0.5 µg/mL (Toxoplasma gondii [1]; L929, 24 h, 24 hours) was 42%, the inhibition at 5 µg/mL (Toxoplasma gondii [1]; L929, 24 h, 24 hours) was 2.8% and the inhibition at 0.5 µg/mL (Toxoplasma gondii [1]; L929, 48 h, 48 hours) was 77.6%. For the same compound, the inhibition at 5 µg/mL (Toxoplasma gondii [1]; L929, 48 h, 48 hours) was 55%, the inhibition at 0.5 µg/mL (Toxoplasma gondii [1]; L929, 72 h, 72 hours) was 59% and the inhibition at 5 µg/mL (Toxoplasma gondii [1]; L929, 72 h, 72 hours) was 86.2%. The inhibition at 0.5 µg/mL (Toxoplasma gondii [2]; [6]) was 53.4%, the inhibition at 5 µg/mL (Toxoplasma gondii [2]; [7]) was 84.4% and the inhibition at 5 µg/mL (Toxoplasma gondii [2]; 48 h) was 97.3%. For the same compound, the inhibition at 0.5 µg/mL (Toxoplasma gondii [2]; [8]) was 95.3%, the inhibition at 0.5 µg/mL (Toxoplasma gondii [2]; [10]) was 91.6% and the inhibition at 5 µg/mL (Toxoplasma gondii [2]; [11]) was 99.8%. It also gave an inhibition at 24 h ([3]; L929, 0.5 μg/ml) of 8%, an inhibition at 48 h ([3]; L929, 0.5 μg/ml) of 0% and an inhibition at 72 h ([3]; L929, 0.5 μg/ml) of 0%. It also gave an inhibition at 24 h ([3]; L929, 5.0 μg/ml) of 18.9%, an inhibition at 48 h ([3]; L929, 5.0 μg/ml) of 66.8% and an inhibition at 72 h ([3]; L929, 5.0 μg/ml) of 88%. It also gave an inhibition at 24 h ([4]; 0.5 μg/ml) of 4.6%, an inhibition at 48 h ([4]; 0.5 μg/ml) of 5.4% and an inhibition at 72 h ([4]; 0.5 μg/ml) of 0%. The inhibition at 24 h ([4]; 5.0 μg/ml) was 7.7%, the inhibition at 48 h ([4]; 5.0 μg/ml) was 29.1% and the inhibition at 72 h ([4]; 5.0 μg/ml) was 41.3%. The inhibition at 0.1 µM (Cryptosporidium parvum) was 9.4%, the inhibition at 1 µM (Cryptosporidium parvum) was 7.2% and the inhibition at 10 µM (Cryptosporidium parvum) was 21.3%. The inhibition at 100 µM (Cryptosporidium parvum) was 88.9%, the cytotoxicity at 48 h, 0.1 µM [5] was 11.2% and the cytotoxicity at 48 h, 1 µM [5] was 2.5%. The cytotoxicity at 48 h, 10 µM [5] was 9.9% and the cytotoxicity at 48 h, 100 µM [5] was 9.9%.

For `NC[C@@H]1O[C@H](O[C@H]2[C@@H](O)[C@H](O[C@@H]3[C@@H](O)[C@H](N)C[C@H](N)[C@H]3O[C@H]3O[C@H](CO)[C@@H](O)[C@H](O)[C@H]3N)O[C@@H]2CO)[C@H](N)[C@@H](O)[C@@H]1O` [Paromomycin, reference compound], the inhibition at 2000 µg/mL (Cryptosporidium parvum) was 77.8%.
